Test results: patent publication US20260000079A1, “COMPOSITIONS AND METHODS FOR MODULATING IMMUNITY IN PLANTS” (BOYCE THOMPSON INSTITUTE FOR PLANT RESEARCH, INC., priority 2019, published 2026)

Tests used:
[1] = test system: Arabidopsis wildtype and ibr10, ech2, ech2ibr10, or acx1acx5 mutants; type: in vivo, Arabidopsis thaliana; details: roots treated with 1 μM ascr #18
Experimental: FIG. 3A provides a comparison of peroxisomal β-oxidation (pβo) pathways and associated enzymes involved in the conversion of indole-3-butyric acid (IBA)-to-indole acetic acid (IAA) in Arabidopsis and ascaroside biosynthesis in C. elegans. FIG. 3B provides LC-MS analysis of Arabidopsis seedlings treated with 1 μM ascr #18 for 24 hours before sample extraction, comparing ascr #9 production in wildtype and ibr10, ech2, ech2ibr10, or acx1acx5 mutants. FIG. 3C provides a comparison of ascaroside abundances in Arabidopsis wildtype and acx1acx5 roots treated with 1 μM ascr #18. Data are averages±SEM (n=5); n.d.=not detected. FIG. 3D provides RNAseq analysis of ten day-old Arabidopsis wildtype and acx1acx5 mutant roots, plotted as transcript abundance. Data are averages±s.d (n=6).
Arabidopsis thaliana mutant genotypes in the Col-0 background, ibr10-1, ech2-1, ibr10-1ech2-1, and acx1-2acx5-1, were obtained from Rice University (Houston, TX) (Strader, et al. (2011) Plant Cell 23:984-999; Adham, et al. (2005) Plant J. 41:859-874).
To test whether ascr #18 is metabolized via pβo in plants, Arabidopsis mutants impaired in key enzymes of this pathway were analyzed (FIG. 3B). […] In contrast, two other putative po genes, ibr10 and ech2, a putative enoyl-CoA hydratases (Strader, et al. (2011) Plant Cell 23:984-999; Adham, et al. (2005) Plant J. 41:859-874; Zolman, et al. (2008) Genetics 180(1): 237-51), are not required for ascr #18 metabolism in Arabidopsis. ACXs participate in the […] step of pβo by introducing α,β-unsaturation in the side-chain (Von Reuss, et al. (2012) J. Am. Chem. Soc. 134:1817-1824; Strader, et al. (2011) Plant Cell 23:984-999). […] These observations indicate that ascr #18 metabolism in plants into shorter-chained ascarosides proceeds via pβo, and that ACX1 and/or ACX5 are strictly required for chain shortening of ascr #10, whereas the first chain-shortening step from ascr #18 to ascr #10 may involve additional acyl-CoA oxidases.

[2] = test system: Arabidopsis root exudates; experiment: LC-MS of root exudates of ascr #18-treated Arabidopsis seedlings; type: in vivo, Arabidopsis thaliana; details: for secretion of ascr #18 metabolites via roots: ascr #18-treated wildtype, 6 hours treatment
Experimental: (§1) Data are average±SEM (n=6), n.d.=not detected. […] Exudates from approximately 40 seedlings were collected in distilled water and pooled. Abundances of ascarosides are shown as the peak area, as measured by LC-MS. Data are average±SEM (n=3); n.d.=not detected. FIGS. 5C and 5D show the relative abundances of ascarosides in root exudates of eight-day old tomato seedlings treated with 10 nM (FIG. 5C) or 1000 nM (FIG. 5D) ascr #18 for 6 hours. Exudates from approximately 10 seedlings were collected in distilled water and pooled. Abundances of ascarosides are shown as the peak area, as measured by LC-MS. Data are average±SEM (n=3); n.d.=not detected. FIG. 5E provides the relative abundances of ascr #10, ascr #1, and ascr #9 in the growth media of eight-day old tomato seedlings supplemented with 1 μM ascr #18. Ten-gram media samples were collected at different time points over a 48 hour period for metabolome extraction. Abundances of ascarosides are shown as the peak area, as measured by LC-MS.
(§2) To test this possibility, root-secreted metabolites of ascr #18- and mock-treated Arabidopsis were compared (FIG. 5A). For this experiment, 10-day old Arabidopsis seedlings were treated in growth media supplemented with ascr #18 for 6 hours prior to collection of exudates from roots submerged in water. […] Analogous results were obtained in experiments with tomato roots (FIG. 5C, 5D).

tomato root exudates = experiment: LC-MS of root exudates and growth media of ascr #18-treated tomato seedlings; type: in vivo, Solanum lycopersicum
Experimental: as §1, §2

Structure (SMILES)	ascaroside levels in ascr #18-treated acx1acx5 mutant compared with wildtype [1]	secretion of ascr #18 metabolites via roots [2]	relative abundance among root-excreted ascr #18 metabolites (tomato root exudates)	relative abundance among root-excreted ascr #18 metabolites ([2]; Arabidopsis)	ascarosides in root exudates of acx1acx5 ([2]; acx1acx5 seedlings, 10 nM ascr #18 for 6 hours)
C[C@H](CCCCC(=O)O)O[C@@H]1O[C@@H](C)[C@H](O)C[C@H]1O [ascr #1]	not detected	secretion			
C[C@H](CCCCCCC(=O)O)O[C@@H]1O[C@@H](C)[C@H](O)C[C@H]1O [ascr #10]	smaller amounts	secretion	least abundant	least abundant	detected
